Data as given in US5871954A, “Fatty acid analog enzyme substrates” (Washington University, priority 1993, dated 1999).
Starred links: 1 amine or outer side, 2 acyl side, 3 side chain; linkers in the order of their positions; H or OH if unused. Non-standard residues stand in square brackets, D forms with d. No end group written: not given here. *: point of attachment. Tyr(125I) = 125I-iodotyrosine, O=C([C@H](Cc1ccc(O[*:3])c([125I])c1)N[*:1])[*:2]; 11‑(ethylthio)undecanoyl = CCSCCCCCCCCCCC(=O)*

Columns and labels:
[1] = C18 reverse phase HPLC elution of acyl peptides (hydrophobicity); type: physicochemical; conditions: for elution earlier than the corresponding myristoyl peptide: acyl-GNAASYRR[125I]; for Elution Time: Table 2, C18 reverse phase HPLC; for elution time of fatty acyl derivative of GNAAAARR: HPLC
Description: The fatty acid analog acyl-peptide eluted 7 minutes earlier than the corresponding myristoyl peptide. The free peptide elutes in the void volume (3-5 minutes).
This difference was evident when the HPLC elution characteristics of fatty acyl peptides were examined. The elution time of a particular acyl-peptide depends strongly on the peptide sequence as well as on the acyl chain attached to that peptide. For example, the elution times of fatty acyl derivatives of GNAAAARR are (in minutes) decanoic acid, 9; dodecanoic acid, 18; myristic acid, 24; and palmitic acid, 30. Elution times for fatty acyl derivatives of GNAAS[^125 I]YRR are 23 and 28 minutes for C12 and C14 fatty acids, respectively (FIG. 2). […] Such a change could alter the biological activity of myristoyl proteins.
(§1) For these Examples, each analog synthesized is characterized by ^1 H and 13C NMR as well as mass spectroscopy. The analogs are then characterized kinetically as NMT substrates. Briefly, fatty acid analogs are converted to their CoA esters with Pseudomonas CoA ligase and incubated with the iodinated peptide GNAAS[^125 I]YRR and a source of NMT. […] The radiolabelled peptide is then used at concentrations which will lead to 50% enzyme saturation (i.e., at its Km) for the determination of fatty acid analog kinetic characteristics. Representative analogs with sulfur or oxygen in the backbone of the fatty acid chain serve as good substrates for NMT in vitro and will compete for incorporation of ^3 H labelled myri-state into yeast proteins in vivo. In addition, these analogs differ markedly in hydrophobicity from myri-state as measured both by C18 reverse phase HPLC elution profiles and by 2-octanol/water partition coefficients. The analog CH3 O (CH2)11 COOH, for example, partitions into water 20 fold better than myristate. It is believed that these analogs will be incorporated into mammalian acylproteins in vivo and that their incorporation into these proteins will drastically alter protein processing or targeting. It is further believed that the incorporation of fatty acid analogs of both myristate and palmitate into ester linked and phosphatidyl inositol glycan linked acylproteins will also dramatically alter their properties. Since many viral proteins and oncogenes are acylated, these compounds represent a new class of potential antiviral and antineoplastic agents.

[2] = molecular target: T1, yeast NMT (Saccharomyces cerevisiae, UniProt P14743); assay: in vitro yeast NMT assay, kinetics of fatty acid analog substrates with iodinated peptide GNAAS[125I]YRR; type: biochemical; conditions: Table 2, relative to myristate control 100%; for Peptide Vm: fatty acid analog at 15 μM; for Acyl CoA Vm: peptide at its Km
T1 construct: 11,000-fold purified preparation of yeast NMT; from tissue; host or cells: yeast
T1 sequence (P14743 1-455): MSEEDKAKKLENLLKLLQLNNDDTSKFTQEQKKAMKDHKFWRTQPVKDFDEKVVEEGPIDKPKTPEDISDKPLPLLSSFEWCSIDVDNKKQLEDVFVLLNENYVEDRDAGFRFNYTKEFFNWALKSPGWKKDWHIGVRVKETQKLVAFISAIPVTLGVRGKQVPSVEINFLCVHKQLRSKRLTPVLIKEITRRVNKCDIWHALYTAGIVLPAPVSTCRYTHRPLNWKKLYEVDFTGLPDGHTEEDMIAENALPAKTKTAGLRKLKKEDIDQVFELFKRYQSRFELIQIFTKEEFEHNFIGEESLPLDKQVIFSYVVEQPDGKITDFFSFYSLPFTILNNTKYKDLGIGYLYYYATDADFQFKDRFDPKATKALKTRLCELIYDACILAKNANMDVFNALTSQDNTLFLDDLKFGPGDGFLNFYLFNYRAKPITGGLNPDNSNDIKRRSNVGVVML
Excerpt: Similar results were obtained using an 11,000-fold purified preparation of yeast NMT [Towler et al., Proc. Natl. Acad. Sci. USA 84, 2708-2712 (1987)].
Other illustrative examples of the oxy- and thio-substituted fatty acid analog substrate compounds of the invention were synthesized in Examples 6 to 14 and tested in Example 15 as substrates for the yeast NMT.
as §1

[3] = C-18 reverse phase HPLC, FIG. 2

| Compound | Peptide Vm [2] | Acyl CoA Vm [2] | Elution Time [1] | elution time of fatty acyl derivative of GNAAAARR [1] | further results |
| --- | --- | --- | --- | --- | --- |
| 11-(ethylthio)undecanoyl-GNAASYRR[^125 I]: fatty acid analog acyl-peptide ({11‑(ethylthio)undecanoyl}-GNAAS[Tyr(125I)]RR) |  |  |  |  | elution earlier than the corresponding myristoyl peptide [1, 3]: 7 min; elution earlier than the corresponding myristoyl peptide ([1]; C-18 reverse phase HPLC, FIG. 2, listed as 11-(ethylthio)undecanoyl-GNAAS [^125 I]YRR): seven minutes earlier |
| CCCOCCCCCCCCCC(=O)O [CH3 (CH2)2 O(CH2)9 COOH, 10-(Propoxy)decanoic acid] | 150% | 250% |  |  |  |
| CCCCCCCCCCCCCC(=O)O [CH3 (CH2)12 COOH, myristic acid, reference compound] | 100% | 100% | 26 min | 24 min | elution time of fatty acyl derivative of GNAAS[125I]YRR [1, 3]: 28 min |
| CCOCCCCCCCCCCC(=O)O [CH3 CH2 O(CH2)10 COOH, 11-(Ethoxy)undecanoic acid] | 62% | 64% | 12 min |  |  |
| C#CCOCCCCCCCCCC(=O)O [HC≡CCH2 O(CH2)9 COOH, 10-(2-Propynoxy)decanoic acid] | 200% | 320% | 9 min |  |  |
| CCCCCCCCCC(=O)O [decanoic acid, reference compound] |  |  |  | 9 min |  |
| CCCCCCCCCCCC(=O)O [dodecanoic acid, reference compound] |  |  |  | 18 min | elution time of fatty acyl derivative of GNAAS[125I]YRR [1, 3]: 23 min |
| CCCCCCCCCCCCCCCC(=O)O [palmitic acid, reference compound] |  |  |  | 30 min |  |
| Gly-Asn-Ala-Ala-Ser-[^125 I]Tyr-Arg-Arg [free peptide, reference compound] |  |  |  |  | elution of free peptide (void volume) [1, 3]: 3 to 5 min |

The next lines start with results.

| Peptide Vm [2] | Acyl CoA Vm [2] | Elution Time [1] | Compound | elution time of fatty acyl derivative of GNAAAARR [1] | further results |
| --- | --- | --- | --- | --- | --- |
|  | 250% | 18 min | CCCSCCCCCCCCCC(=O)O [CH3 (CH2)2 S(CH2)9 COOH, 10-(Propylthio)decanoic acid] |  |  |
|  |  | 16 min | CCCCCCCCOCCCCC(=O)O [CH3 (CH2)7 O(CH2)4 COOH, 5-(octyloxy)pentanoic acid] |  |  |
|  | 160% | 21 min | CCCCCCCCSCCCCC(=O)O [CH3 (CH2)7 S(CH2)4 COOH, 5-(Octylthio)pentanoic acid] |  |  |
